Experimental data reported in article PMC6277767, “Broad and Region-Specific Impacts of the Synthetic Cannabinoid CP 55,940 in Adolescent and Adult Female Mouse Brains” (Frontiers in Molecular Neuroscience, 2018).

Tested on: CD1 female mouse brain lipidome
Experiment: Brain-region lipid levels (HPLC/MS/MS lipidomics) 2 h after single i.p. 3 mg/kg CP 55,940 vs vehicle
Type: in vivo
Protocol: The Bloomington Institutional Animal Care and Use Committee of Indiana University reviewed and approved the animal procedures. Female mice from the CD1 strain were utilized to match our study examining THC’s effects on the brain lipidome ([Leishman et al., 2018]). Mice were given a single i.p. injection of either 3 mg/kg CP or 1:1:18 cremophor:ethanol:saline vehicle (please refer to the section “3 mg/kg CP Is Relevant for Synthetic Cannabinoid Abuse and Has Stronger Effects on the Female Mouse Brain Lipidome During Adolescence” for a justification of dose and use of female mice). Three different age groups were given injections: PND 35 and PND 50 adolescents, and adult mice (PND 113). At least eight mice in each age group received CP and at least eight received vehicle. Matching the THC study time course ([Leishman et al., 2018]), mice were sacrificed via rapid decapitation 2 h after injection. Brains were immediately removed and flash-frozen in liquid nitrogen, and then stored at -80°C until dissections were performed. Brains were dissected on an ice-cold dissection plate into the following regions: STR, HIPP, CER, THAL, CTX, HYP, MID, and STEM. These abbreviations for these brain areas will be used exclusively when discussing the results generated by these specific dissections. Each dissected area was immediately placed in liquid nitrogen and then stored at -80°C until used for lipid extraction.
Tissue extracts were performed as previously described ([Bradshaw et al., 2006]; [Stuart et al., 2013]; [Raboune et al., 2014]; [Leishman et al., 2016a],[b], [2017], [2018]). First, samples were shock frozen in liquid nitrogen, weighed, and transferred to a centrifuge tube. The mass of the largest sample was multiplied by 50 to determine how many milliliters of HPLC-grade methanol (Fisher, Fair Lawn, NJ, United States) to add. Then, samples were spiked with 500 pmol deuterium-labeled NAGly (d8NAGly; Cayman Chemical, Ann Arbor, MI, United States). Samples were placed on ice in darkness for 2 h then individually homogenized and centrifuged at 19,000 × g for 20 min at 20°C. Supernatants were diluted with HPLC water (purified in house) to make a solution of 75% water, 25% supernatant. Lipids were partially purified on C18 solid phase extraction columns (Agilent, Palo Alto, CA, United States). A series of four elutions with 1.5 mL of 60%, 75%, 85%, and 100% methanol were collected ([Stuart et al., 2013]; [Leishman et al., 2016a],[b], [2018]).
As previously described ([Bradshaw et al., 2006]; [Tan et al., 2006]; [Smoum et al., 2010]; [Stuart et al., 2013]; [Tortoriello et al., 2013]; [Raboune et al., 2014]; [Leishman et al., 2016a],[b], [2017], [2018]), samples were analyzed using an Applied Biosystems API 3000 triple quadrupole mass spectrometer with electrospray ionization (Foster City, CA, United States). Using an Agilent XDB-C18 reversed phase analytical column and optimized mobile phase gradients, 20 μL from each elution were chromatographed. Two Shimadzu 10ADvp pumps (Columbia, MD, United States) provided the pressure for gradient elution. Mobile phase A: 20% methanol, 80% water (v/v) and 1 mM ammonium acetate (Sigma, St. Louis, MO, United States). Mobile phase B: 100% methanol, 1 mM ammonium acetate. Every method run began with 0% mobile phase B, reached 100% mobile phase B flowing at 0.2 mL/min, and gradually returned to 0% mobile phase B.
This screening library will be referred to as the lipidome when discussing data from this study. HPLC/MS/MS data were analyzed using Analyst software (Applied Biosystems) ([Bradshaw et al., 2006]; [Tan et al., 2006]; [Stuart et al., 2013]; [Tortoriello et al., 2013]; [Raboune et al., 2014]; [Leishman et al., 2016a],[b], [2017], [2018]). Chromatograms (Supplementary Figure 3) were generated by determining the retention time of analytes from the analytical column with a [M-1] or [M+1] parent peak and a fragmentation peak corresponding to the programmed values. […]

CCCCCCC(C)(C)c1ccc([C@@H]2C[C@H](O)CC[C@H]2CCCO)c(O)c1 [CP 55,940]
PGF2α level vs vehicle (PND 35 HIPP): ↑ (1-1.49 times higher than vehicle)
number of lipids changed (PND 35 HIPP, 65 detected): 39
2-arachidonoyl glycerol level vs vehicle (PND 35 HYP): ↓↓↓ (2-2.99 times lower than vehicle)
2-linoleoyl glycerol level vs vehicle (PND 35 HYP): ↓↓ (1.50-1.99 times lower than vehicle)
2-oleoyl glycerol level vs vehicle (PND 35 HYP): ↓↓ (1.50-1.99 times lower than vehicle)
2-palmitoyl glycerol level vs vehicle (PND 35 HYP): ↑ (1-1.49 times higher than vehicle)
Arachidonic acid level vs vehicle (PND 35 HYP): ↓ (1-1.49 times lower than vehicle)
Linoleic acid level vs vehicle (PND 35 HYP): ↓ (1-1.49 times lower than vehicle)
N-arachidonoyl GABA level vs vehicle (PND 35 HYP): ↓ (1-1.49 times lower than vehicle)
N-arachidonoyl alanine level vs vehicle (PND 35 HYP): ↓↓ (1.50-1.99 times lower than vehicle)
N-arachidonoyl ethanolamine level vs vehicle (PND 35 HYP): ↓ (1-1.49 times lower than vehicle)
N-arachidonoyl glycine level vs vehicle (PND 35 HYP): ↓ (1-1.49 times lower than vehicle)
N-arachidonoyl phenylalanine level vs vehicle (PND 35 HYP): ↓ (1-1.49 times lower than vehicle)
N-arachidonoyl taurine level vs vehicle (PND 35 HYP): ↓ (1-1.49 times lower than vehicle)
N-docosahexaenoyl GABA level vs vehicle (PND 35 HYP): ↓ (1-1.49 times lower than vehicle)
N-docosahexaenoyl ethanolamine level vs vehicle (PND 35 HYP): ↓↓ (1.50-1.99 times lower than vehicle)
N-linoleoyl alanine level vs vehicle (PND 35 HYP): ↓ (1-1.49 times lower than vehicle)
N-oleoyl GABA level vs vehicle (PND 35 HYP): ↓ (1-1.49 times lower than vehicle)
N-oleoyl alanine level vs vehicle (PND 35 HYP): ↓ (1-1.49 times lower than vehicle)
N-oleoyl ethanolamine level vs vehicle (PND 35 HYP): ↓↓ (1.50-1.99 times lower than vehicle)
N-palmitoyl ethanolamine level vs vehicle (PND 35 HYP): ↓↓ (1.50-1.99 times lower than vehicle)
N-palmitoyl leucine level vs vehicle (PND 35 HYP): ↑ (1-1.49 times higher than vehicle)
N-stearoyl ethanolamine level vs vehicle (PND 35 HYP): ↓ (1-1.49 times lower than vehicle)
Oleic Acid level vs vehicle (PND 35 HYP): ↓ (1-1.49 times lower than vehicle)
PGE2 level vs vehicle (PND 35 HYP): ↓ (1-1.49 times lower than vehicle)
PGF2α level vs vehicle (PND 35 HYP): ↑ (1-1.49 times higher than vehicle)
phosphoLEA level vs vehicle (PND 35 HYP): ↑ (1-1.49 times higher than vehicle)
2-linoleoyl glycerol level vs vehicle (PND 35 MID): ↓ (1-1.49 times lower than vehicle)
6-ketoPGF1α level vs vehicle (PND 35 MID): ↓ (1-1.49 times lower than vehicle)
Arachidonic acid level vs vehicle (PND 35 MID): ↓ (1-1.49 times lower than vehicle)
N- stearoyl valine level vs vehicle (PND 35 MID): ↑ (1-1.49 times higher than vehicle)
N-arachidonoyl GABA level vs vehicle (PND 35 MID): ↓ (1-1.49 times lower than vehicle)
N-arachidonoyl alanine level vs vehicle (PND 35 MID): ↓ (1-1.49 times lower than vehicle)
N-arachidonoyl glycine level vs vehicle (PND 35 MID): ↓ (1-1.49 times lower than vehicle)
N-arachidonoyl serine level vs vehicle (PND 35 MID): ↓ (1-1.49 times lower than vehicle)
N-arachidonoyl taurine level vs vehicle (PND 35 MID): ↓ (1-1.49 times lower than vehicle)
N-arachidonoyl tyrosine level vs vehicle (PND 35 MID): ↓ (1-1.49 times lower than vehicle)
N-docosahexaenoyl GABA level vs vehicle (PND 35 MID): ↓ (1-1.49 times lower than vehicle)
N-docosahexaenoyl alanine level vs vehicle (PND 35 MID): ↓ (1-1.49 times lower than vehicle)
N-docosahexaenoyl glycine level vs vehicle (PND 35 MID): ↓ (1-1.49 times lower than vehicle)
N-docosahexaenoyl leucine level vs vehicle (PND 35 MID): ↑ (1-1.49 times higher than vehicle)
N-docosahexaenoyl methionine level vs vehicle (PND 35 MID): ↓ (1-1.49 times lower than vehicle)
N-docosahexaenoyl serine level vs vehicle (PND 35 MID): ↓ (1-1.49 times lower than vehicle)
N-docosahexaenoyl tyrosine level vs vehicle (PND 35 MID): ↓ (1-1.49 times lower than vehicle)
N-docosahexaenoyl valine level vs vehicle (PND 35 MID): ↑↑ (1.50-1.99 times higher than vehicle)
N-linoleoyl ethanolamine level vs vehicle (PND 35 MID): ↑ (1-1.49 times higher than vehicle)
N-oleoyl GABA level vs vehicle (PND 35 MID): ↓ (1-1.49 times lower than vehicle)
N-oleoyl ethanolamine level vs vehicle (PND 35 MID): ↓ (1-1.49 times lower than vehicle)
N-oleoyl phenylalanine level vs vehicle (PND 35 MID): ↑ (1-1.49 times higher than vehicle)
N-oleoyl valine level vs vehicle (PND 35 MID): ↑ (1-1.49 times higher than vehicle)
N-palmitoyl leucine level vs vehicle (PND 35 MID): ↑ (1-1.49 times higher than vehicle)
N-palmitoyl phenylalanine level vs vehicle (PND 35 MID): ↑ (1-1.49 times higher than vehicle)
N-palmitoyl valine level vs vehicle (PND 35 MID): ↑↑ (1.50-1.99 times higher than vehicle)
N-stearoyl methionine level vs vehicle (PND 35 MID): ↑ (1-1.49 times higher than vehicle)
N-stearoyl tyrosine level vs vehicle (PND 35 MID): ↓ (1-1.49 times lower than vehicle)
PGE2 level vs vehicle (PND 35 MID): ↑ (1-1.49 times higher than vehicle)
PGF2α level vs vehicle (PND 35 MID): ↑ (1-1.49 times higher than vehicle)
phosphoLEA level vs vehicle (PND 35 MID): ↑ (1-1.49 times higher than vehicle)
2-arachidonoyl glycerol level vs vehicle (PND 35 STEM): ↓ (1-1.49 times lower than vehicle)
2-linoleoyl glycerol level vs vehicle (PND 35 STEM): ↓ (1-1.49 times lower than vehicle)
N- stearoyl valine level vs vehicle (PND 35 STEM): ↑ (1-1.49 times higher than vehicle)
N-arachidonoyl GABA level vs vehicle (PND 35 STEM): ↓ (1-1.49 times lower than vehicle)
N-arachidonoyl taurine level vs vehicle (PND 35 STEM): ↓ (1-1.49 times lower than vehicle)
N-docosahexaenoyl leucine level vs vehicle (PND 35 STEM): ↑ (1-1.49 times higher than vehicle)
N-docosahexaenoyl valine level vs vehicle (PND 35 STEM): ↑ (1-1.49 times higher than vehicle)
N-oleoyl leucine level vs vehicle (PND 35 STEM): ↑ (1-1.49 times higher than vehicle)
N-oleoyl proline level vs vehicle (PND 35 STEM): ↑ (1-1.49 times higher than vehicle)
N-oleoyl valine level vs vehicle (PND 35 STEM): ↑ (1-1.49 times higher than vehicle)
N-palmitoyl leucine level vs vehicle (PND 35 STEM): ↑ (1-1.49 times higher than vehicle)
N-palmitoyl phenylalanine level vs vehicle (PND 35 STEM): ↑ (1-1.49 times higher than vehicle)
N-palmitoyl proline level vs vehicle (PND 35 STEM): ↑ (1-1.49 times higher than vehicle)
N-palmitoyl tryptophan level vs vehicle (PND 35 STEM): ↓ (1-1.49 times lower than vehicle)
N-palmitoyl valine level vs vehicle (PND 35 STEM): ↑ (1-1.49 times higher than vehicle)
PGE2 level vs vehicle (PND 35 STEM): ↑ (1-1.49 times higher than vehicle)
number of lipids changed (PND 35 STEM, 70 detected): 16
2-arachidonoyl glycerol level vs vehicle (PND 35 STR): ↓ (1-1.49 times lower than vehicle)
2-linoleoyl glycerol level vs vehicle (PND 35 STR): ↓↓ (1.50-1.99 times lower than vehicle)
2-oleoyl glycerol level vs vehicle (PND 35 STR): ↓ (1-1.49 times lower than vehicle)
N- stearoyl valine level vs vehicle (PND 35 STR): ↑ (1-1.49 times higher than vehicle)
N-arachidonoyl GABA level vs vehicle (PND 35 STR): ↓↓ (1.50-1.99 times lower than vehicle)
N-arachidonoyl alanine level vs vehicle (PND 35 STR): ↓ (1-1.49 times lower than vehicle)
N-arachidonoyl glycine level vs vehicle (PND 35 STR): ↓ (1-1.49 times lower than vehicle)
N-arachidonoyl phenylalanine level vs vehicle (PND 35 STR): ↓ (1-1.49 times lower than vehicle)
N-arachidonoyl serine level vs vehicle (PND 35 STR): ↓↓ (1.50-1.99 times lower than vehicle)
N-arachidonoyl taurine level vs vehicle (PND 35 STR): ↓ (1-1.49 times lower than vehicle)
N-arachidonoyl tyrosine level vs vehicle (PND 35 STR): ↓ (1-1.49 times lower than vehicle)
N-docosahexaenoyl GABA level vs vehicle (PND 35 STR): ↓ (1-1.49 times lower than vehicle)
N-docosahexaenoyl alanine level vs vehicle (PND 35 STR): ↓ (1-1.49 times lower than vehicle)
N-docosahexaenoyl ethanolamine level vs vehicle (PND 35 STR): ↓ (1-1.49 times lower than vehicle)
N-docosahexaenoyl leucine level vs vehicle (PND 35 STR): ↑ (1-1.49 times higher than vehicle)
N-docosahexaenoyl serine level vs vehicle (PND 35 STR): ↓ (1-1.49 times lower than vehicle)
N-oleoyl GABA level vs vehicle (PND 35 STR): ↓ (1-1.49 times lower than vehicle)
N-oleoyl alanine level vs vehicle (PND 35 STR): ↓ (1-1.49 times lower than vehicle)
N-oleoyl ethanolamine level vs vehicle (PND 35 STR): ↓↓ (1.50-1.99 times lower than vehicle)
N-oleoyl glycine level vs vehicle (PND 35 STR): ↓ (1-1.49 times lower than vehicle)
N-palmitoyl ethanolamine level vs vehicle (PND 35 STR): ↓ (1-1.49 times lower than vehicle)
N-palmitoyl leucine level vs vehicle (PND 35 STR): ↑ (1-1.49 times higher than vehicle)
N-palmitoyl valine level vs vehicle (PND 35 STR): ↑↑ (1.50-1.99 times higher than vehicle)
N-stearoyl alanine level vs vehicle (PND 35 STR): ↓ (1-1.49 times lower than vehicle)
N-stearoyl leucine level vs vehicle (PND 35 STR): ↓ (1-1.49 times lower than vehicle)
N-stearoyl serine level vs vehicle (PND 35 STR): ↓ (1-1.49 times lower than vehicle)
PGE2 level vs vehicle (PND 35 STR): ↑ (1-1.49 times higher than vehicle)
